From US8883841B2, “Oncogenic ras-specific cytotoxic compound and methods of use thereof” (The Board of Regents of the University of Texas System, priority 2005, dated 2014)

Key:
Type in all cases: cell-based, human
[1] = system: H460 cells; test: K-Ras siRNA knockdown, Oncrasin-induced apoptosis by FACS in H460 cells; conditions: 1 μM, 12 h, compared with DMSO
Experimental: K-Ras knockdown inhibited Oncrasin-induced apoptosis. To further study the role of K-Ras gene in Oncrasin-induced cell death, H460 cells were treated with […] of K-Ras specific siRNA or a control siRNA for 24 h. The cells were then treated with DMSO or 1 μM Oncrasin-1. After another 12 h, the cells were harvested for apoptosis detection by fluorescence-activated cytometric assay. The cell lysate was also used to detect K-Ras gene expression.

[2] = system: H460 cells; test: PKCiota siRNA knockdown, apoptosis by FACS in H460 cells; conditions: 1 μM, 12 h
Experimental: Knockdown of PKCiota suppressed Oncrasin-mediated apoptosis and cytotoxicity. To investigate possible role of PCKiota in Oncrasin-1 mediated cytotoxicity, PKCiota was knocked down in H460 cells by using oligo ribonucleotides. H460 cells were treated with 200 pM PKCiota siRNA for 24 h, and then with DMSO or 1 μM Oncrasin for another 12 h. After that, cells harvested for analysis of apoptosis by fluorescence-activated cell sorting (FACS) and for expression of PKCiota by Western blot analysis. […] To further study the effect of atypical PKC in Oncrasin-induced cytotoxicity, the inventors obtained plasmids encoding PKCiota and PKCzeta siRNA from Origene Corporation and made stable PKCiota and PKCzeta knockdown T29Kt1 cells. […] The IC50 in PKCiota knockdown T29Kt1 cells were 100 fold higher than parental T29K cells. […] Thus, compounds with synthetic lethality for PKCiota might be useful for treatment of those cancers.

[3] = system: Raf-1 mRNA; test: RT-PCR analysis of Raf-1 mRNA in H460 cells
Experimental: FIGS. 10A-10D Effect of Oncrasin-1 on Raf-1 expression. (FIG. 10A) H460 cells were treated with various concentrations of Oncrasin-1 and harvested 24 h later for Western blot analysis. (FIG. 10B) Reverse transcriptase-based polymerase chain reaction (RT-PCR) assay. H460 cells treated with 1 μM Oncrasin-1 for various times or at various concentrations for 24 h, as indicated. (+, −, positive and negative controls). […] (FIG. 10D) Dose effects of Oncrasin-1 on stable cell lines transfected with Raf-1 plasmids. Parental H460 cells and H460 cells transfected with wild-type Raf-1 (Raf-1), constitutive Raf-1 (Raf-1C), or dominant-negative Raf-1 Raf-1/DN) were treated with various concentrations of Oncrasin-1, and cell viability was determined by SRB assay.
Suppression of Raf-1 expression by Oncrasin-1. […] To elucidate the roles of Raf-1 in Oncrasin-induced apoptosis, the inventors evaluated the expression of Raf-1 in H460 cells after treatment with different concentrations of Oncrasin-1. […] Because Raf-1 executes anti-apoptosis function via a variety of pathways. […] However, the resistance to Oncrasin-1 was more prominent in the constitutively active Raf-1-transfected cells than in cells with the wild-type Raf-1 (FIG. 10C and FIG. 10D).

[4] = system: Bax, Bik, Bcl-2, Bcl-XL, Mst1, B-Raf, PKCzeta and PKCiota; test: Western blot analysis of apoptosis/Ras signaling proteins; conditions: T29, T29Kt1 and H460 cells, 12 h
Experimental: Ras Signaling Pathway and Molecular Mechanisms of Oncrasin-induced apoptosis. To investigate molecular mechanisms of apoptosis induction by Oncrasin compounds, levels several proteins that are involved in apoptosis and/or involved in Ras signaling pathways were determined, including Bax, Bik, Bc12, Bcl-XL, Raf-1, B-Raf, Akt, Mst1 and atypical protein kinase C (aPKC) zeta and PKCiota. To study which molecules are affected by Oncrasin treatment, T29, T29Kt1 and H460 cells were treated with Oncrasin-1 at an optimal concentration, around IC60 to IC80 for T29Kt1 and H460 cells. Cell lysates were collected 12 h after the treatment and subjected to Western blot analysis.

`O=Cc1cn(Cc2ccc(Cl)cc2)c2ccccc12` [Oncrasin K001, 1H-Indole-3-carboxaldehyde, 1-[(4-chlorophenyl)methyl]-(9CI)] was tested, and the “apoptotic cells, control siRNA treated H460” value [1] was “dramatic increase of apoptotic cells”, the “apoptosis in H460 cells after knockdown of PKCiota by siRNA” value [2] was “dramatically suppressed Oncrasin-induced apoptosis” and the “Raf-1 mRNA level” value [3] was “decreased in a dose- and time-dependent fashion”. For the same compound, the “levels of Bax, Bik, Bcl-2, Bcl-XL, Mst1, B-Raf, PKCzeta and PKCiota” value [4] was “did not result in noticeable changes”.
